The text below walks through data of patent US10738056B2 (Aduro BioTech, Inc., priority 2017, dated 2020).

Where only a bound is given, the exact number is not on record here.

Human cGAS amino acids 155-522, sequence (Q8N884 157-522): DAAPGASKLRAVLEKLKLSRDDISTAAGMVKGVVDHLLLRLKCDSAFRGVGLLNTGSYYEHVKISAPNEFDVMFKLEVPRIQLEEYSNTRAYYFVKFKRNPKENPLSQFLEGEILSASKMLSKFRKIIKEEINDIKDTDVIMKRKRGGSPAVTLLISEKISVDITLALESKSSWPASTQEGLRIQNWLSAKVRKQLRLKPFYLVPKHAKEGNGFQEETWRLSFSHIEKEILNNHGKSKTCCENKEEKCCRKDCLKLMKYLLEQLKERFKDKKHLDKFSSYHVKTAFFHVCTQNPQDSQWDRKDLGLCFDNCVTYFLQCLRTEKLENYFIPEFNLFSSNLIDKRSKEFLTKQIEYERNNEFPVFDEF

The assay addresses Human cGAS amino acids 155-522 (Homo sapiens (Human), UniProt Q8N884). As to the kind of experiment: cGAS biochemical activity assay (ATP remaining, Kinase-Glo Max luminescence). The following applies: human cGAS 155-522, ATP remaining (Kinase-Glo Max); read-out: cGAS IC50. In general terms: In Kinase-Glo more light means more ATP remaining.
Consider `Cc1[nH]c2c(-c3ccccc3)c(C(F)(F)F)nn2c(=O)c1C(=O)Nc1ccccc1C#N` [Compound A1036, N-(2-cyanophenyl)-5-methyl-7-oxo-3-phenyl-2-(trifluoromethyl)-4,7-dihydropyrazolo[1,5-a]pyrimidine-6-carboxamide], for which the IC50 (in general, the concentration that inhibits the measured activity by half) lay in the range of 20 to 250 µM.

As for `Cc1ccccc1NC(=O)c1c(C)[nH]c2c(-c3ccccc3)c(C(F)(F)F)nn2c1=O` [Compound A1037, 5-methyl-7-oxo-3-phenyl-N-(o-tolyl)-2-(trifluoromethyl)-4,7-dihydropyrazolo[1,5-a]pyrimidine-6-carboxamide], the IC50 fell in the range of 20 to 250 µM.

On to `COC(=O)Nc1ccccc1NC(=O)c1c(C)[nH]c2c(-c3ccccc3)c(C(F)(F)F)nn2c1=O` [Compound A1038, methyl (2-(5-methyl-7-oxo-3-phenyl-2-(trifluoromethyl)-4,7-dihydropyrazolo[1,5-a]pyrimidine-6-carboxamido)phenyl)carbamate], for which the concentration for half-maximal inhibition (IC50) is 20 to 250 µM.

For `CC(=O)Nc1cccc(NC(=O)c2c(C)[nH]c3c(-c4ccccc4)c(C(F)(F)F)nn3c2=O)c1` [Compound A1039, N-(3-acetamidophenyl)-5-methyl-7-oxo-3-phenyl-2-(trifluoromethyl)-4,7-dihydropyrazolo[1,5-a]pyrimidine-6-carboxamide], the IC50 fell in the range of 20 to 250 µM.

For the compound `Cc1[nH]c2c(-c3ccccc3)c(C(F)(F)F)nn2c(=O)c1C(=O)Nc1nc[nH]n1` [Compound A1040, 5-methyl-7-oxo-3-phenyl-N-(1H-1,2,4-triazol-3-yl)-2-(trifluoromethyl)-4,7-dihydropyrazolo[1,5-a]pyrimidine-6-carboxamide], the IC50 fell in the range of 20 to 250 µM.

Turning to `Cc1[nH]c2c(-c3ccccc3)c(C(F)(F)F)nn2c(=O)c1C(=O)Nc1ccn(C2CCCCC2)n1` [Compound A1041, N-(1-cyclohexyl-1H-pyrazol-3-yl)-5-methyl-7-oxo-3-phenyl-2-(trifluoromethyl)-4,7-dihydropyrazolo[1,5-a]pyrimidine-6-carboxamide], the IC50 lay in the range of 20 to 250 µM.

`COCc1[nH]c2c(-c3ccccc3)c(C(F)(F)F)nn2c(=O)c1C(=O)Nc1ccccc1OC` [Compound A1042, 5-(methoxymethyl)-N-(2-methoxyphenyl)-7-oxo-3-phenyl-2-(trifluoromethyl)-4,7-dihydropyrazolo[1,5-a]pyrimidine-6-carboxamide]: the IC50 lay within 20 to 250 µM.

For `COc1cccc(NC(=O)c2c(C)[nH]c3c(-c4ccccc4)c(C(F)(F)F)nn3c2=O)c1OC` [Compound A1043, N-(2,3-dimethoxyphenyl)-5-methyl-7-oxo-3-phenyl-2-(trifluoromethyl)-4,7-dihydropyrazolo[1,5-a]pyrimidine-6-carboxamide], the half-maximal inhibitory concentration (IC50) is 20 to 250 µM.

For `Cc1[nH]c2c(-c3ccccc3)c(C(F)(F)F)nn2c(=O)c1C(=O)Nc1ccccc1OC1CCCC1` [Compound A1044, N-(2-(cyclopentyloxy)phenyl)-5-methyl-7-oxo-3-phenyl-2-(trifluoromethyl)-4,7-dihydropyrazolo[1,5-a]pyrimidine-6-carboxamide], the half-maximal inhibitory concentration (IC50) fell in the range of 20 to 250 µM.

Take `Cc1[nH]c2c(-c3ccccc3)c(C(F)(F)F)nn2c(=O)c1C(=O)Nc1cccc(NS(C)(=O)=O)c1` [Compound A1045, 5-methyl-N-(3-(methylsulfonamido)phenyl)-7-oxo-3-phenyl-2-(trifluoromethyl)-4,7-dihydropyrazolo[1,5-a]pyrimidine-6-carboxamide]: the half-inhibitory concentration (IC50) was below 20 µM.

`Cc1[nH]c2c(-c3ccccc3)c(C(F)(F)F)nn2c(=O)c1C(=O)Nc1cccc(N(S(C)(=O)=O)S(C)(=O)=O)c1` [Compound A1046, 5-methyl-N-(3-(N-(methylsulfonyl)methylsulfonamido)phenyl)-7-oxo-3-phenyl-2-(trifluoromethyl)-4,7-dihydropyrazolo[1,5-a]pyrimidine-6-carboxamide]: the IC50 fell in the range of 20 to 250 µM.

Consider `Cc1[nH]c2c(-c3ccccc3)c(C(F)(F)F)nn2c(=O)c1C(=O)Nc1ccncc1` [Compound A1047, 5-methyl-7-oxo-3-phenyl-N-(pyridin-4-yl)-2-(trifluoromethyl)-4,7-dihydropyrazolo[1,5-a]pyrimidine-6-carboxamide], for which the IC50 lay in the range of 20 to 250 µM.

For the compound `Cc1[nH]c2c(-c3ccccc3)c(C(F)(F)F)nn2c(=O)c1C(=O)Nc1ccccc1OC(F)(F)F` [Compound A1049, 5-methyl-7-oxo-3-phenyl-N-(2-(trifluoromethoxy)phenyl)-2-(trifluoromethyl)-4,7-dihydropyrazolo[1,5-a]pyrimidine-6-carboxamide], the IC50 was 20 to 250 µM.

In the case of `Cc1[nH]c2c(-c3ccccc3)c(C(F)(F)F)nn2c(=O)c1C(=O)Nc1cccc(OC(F)(F)F)c1` [Compound A1050, 5-methyl-7-oxo-3-phenyl-N-(3-(trifluoromethoxy)phenyl)-2-(trifluoromethyl)-4,7-dihydropyrazolo[1,5-a]pyrimidine-6-carboxamide], the half-maximal inhibitory concentration (IC50) fell in the range of 20 to 250 µM.

Regarding `Cc1[nH]c2c(-c3ccccc3)c(C(F)(F)F)nn2c(=O)c1C(=O)Nc1ccccc1N(C)C` [Compound A1053, N-(2-(dimethylamino)phenyl)-5-methyl-7-oxo-3-phenyl-2-(trifluoromethyl)-4,7-dihydropyrazolo[1,5-a]pyrimidine-6-carboxamide], the 50% inhibitory concentration (IC50) was in the range of 20 to 250 µM.

With `Cc1[nH]c2c(-c3ccccc3)c(C(F)(F)F)nn2c(=O)c1C(=O)Nc1ccccc1N1CCCC1` [Compound A1054, 5-methyl-7-oxo-3-phenyl-N-(2-(pyrrolidin-1-yl)phenyl)-2-(trifluoromethyl)-4,7-dihydropyrazolo[1,5-a]pyrimidine-6-carboxamide], the IC50 lay in the range of 20 to 250 µM.

With `Cc1[nH]c2c(-c3ccccc3)c(C(F)(F)F)nn2c(=O)c1C(=O)Nc1ccccc1N1CCCCC1` [Compound A1055, 5-methyl-7-oxo-3-phenyl-N-(2-(piperidin-1-yl)phenyl)-2-(trifluoromethyl)-4,7-dihydropyrazolo[1,5-a]pyrimidine-6-carboxamide], the concentration for half-maximal inhibition (IC50) lay in the range of 20 to 250 µM.

For the compound `COc1ccccc1NC(=O)c1c[nH]c2c(-c3ccccc3)c(C(F)(F)F)nn2c1=O` [Compound A1057, N-(2-methoxyphenyl)-7-oxo-3-phenyl-2-(trifluoromethyl)-4,7-dihydropyrazolo[1,5-a]pyrimidine-6-carboxamide], the IC50 is 20 to 250 µM.

For the compound `Cc1[nH]c2c(-c3ccccc3)c(C(F)(F)F)nn2c(=O)c1C(=O)Nc1[nH]nc(C(F)(F)F)c1C(C)C` [Compound A1058, N-(4-isopropyl-3-(trifluoromethyl)-1H-pyrazol-5-yl)-5-methyl-7-oxo-3-phenyl-2-(trifluoromethyl)-4,7-dihydropyrazolo[1,5-a]pyrimidine-6-carboxamide], the concentration for half-maximal inhibition (IC50) is 20 to 250 µM.

As for `Cc1[nH]c2c(-c3ccccc3)c(C(F)(F)F)nn2c(=O)c1C(=O)Nc1ccccc1OC(C)C` [Compound A1060, N-(2-isopropoxyphenyl)-5-methyl-7-oxo-3-phenyl-2-(trifluoromethyl)-4,7-dihydropyrazolo[1,5-a]pyrimidine-6-carboxamide], the IC50 lay within 20 to 250 µM.

Turning to `Cc1[nH]c2c(-c3ccccc3)c(C(F)(F)F)nn2c(=O)c1C(=O)Nc1[nH]nc(C(F)(F)F)c1C1CCCC1` [Compound A1061, N-(4-cyclopentyl-3-(trifluoromethyl)-1H-pyrazol-5-yl)-5-methyl-7-oxo-3-phenyl-2-(trifluoromethyl)-4,7-dihydropyrazolo[1,5-a]pyrimidine-6-carboxamide], the IC50 is 20 to 250 µM.

For `COc1ccc(F)cc1NC(=O)c1c(C)[nH]c2c(-c3ccccc3)c(C(F)(F)F)nn2c1=O` [Compound A1071, N-(5-fluoro-2-methoxyphenyl)-5-methyl-7-oxo-3-phenyl-2-(trifluoromethyl)-4,7-dihydropyrazolo[1,5-a]pyrimidine-6-carboxamide], the IC50 lay within 20 to 250 µM.

On to `Cc1[nH]c2c(-c3ccccc3)c(C(F)(F)F)nn2c(=O)c1C(=O)Nc1ccnn1C` [Compound A1078, 5-methyl-N-(1-methyl-1H-pyrazol-5-yl)-7-oxo-3-phenyl-2-(trifluoromethyl)-4,7-dihydropyrazolo[1,5-a]pyrimidine-6-carboxamide], for which the IC50 is 20 to 250 µM.

For the compound `COc1cc(F)c(F)cc1NC(=O)c1c(C)[nH]c2c(-c3ccccc3)c(C(F)(F)F)nn2c1=O` [Compound A1080, N-(4,5-difluoro-2-methoxyphenyl)-5-methyl-7-oxo-3-phenyl-2-(trifluoromethyl)-4,7-dihydropyrazolo[1,5-a]pyrimidine-6-carboxamide], the IC50 lay within 20 to 250 µM.

Consider `Cc1[nH]c2c(-c3ccccc3)c(C(F)(F)F)nn2c(=O)c1C(=O)Nc1cccc(OCc2ccccc2)c1` [Compound A1086, N-(3-(benzyloxy)phenyl)-5-methyl-7-oxo-3-phenyl-2-(trifluoromethyl)-4,7-dihydropyrazolo[1,5-a]pyrimidine-6-carboxamide], for which the half-inhibitory concentration (IC50) was below 20 µM.

On to `COc1cc(NC(=O)c2c(C)[nH]c3c(-c4ccccc4)c(C(F)(F)F)nn3c2=O)ccn1` [Compound A1087, N-(2-methoxypyridin-4-yl)-5-methyl-7-oxo-3-phenyl-2-(trifluoromethyl)-4,7-dihydropyrazolo[1,5-a]pyrimidine-6-carboxamide], for which the IC50 is 20 to 250 µM.

On to `Cc1[nH]c2c(-c3ccccc3)c(C(F)(F)F)nn2c(=O)c1C(=O)Nc1nn(C)cc1C#N` [Compound A1090, N-(4-cyano-1-methyl-1H-pyrazol-3-yl)-5-methyl-7-oxo-3-phenyl-2-(trifluoromethyl)-4,7-dihydropyrazolo[1,5-a]pyrimidine-6-carboxamide], for which the half-maximal inhibitory concentration (IC50) was below 20 µM.

With `Cc1[nH]c2c(-c3ccccc3)c(C(F)(F)F)nn2c(=O)c1C(=O)N[C@H]1CCCC[C@@H]1O` [Compound A1091, N-((1S,2S)-2-hydroxycyclohexyl)-5-methyl-7-oxo-3-phenyl-2-(trifluoromethyl)-4,7-dihydropyrazolo[1,5-a]pyrimidine-6-carboxamide], the IC50 was 20 to 250 µM.

With `Cc1[nH]c2c(-c3ccccc3)c(C(F)(F)F)nn2c(=O)c1C(=O)N[C@H]1CCCC[C@H]1O` [Compound A1092, N-((1S,2R)-2-hydroxycyclohexyl)-5-methyl-7-oxo-3-phenyl-2-(trifluoromethyl)-4,7-dihydropyrazolo[1,5-a]pyrimidine-6-carboxamide], the IC50 lay within 20 to 250 µM.
